Results on 16 compounds are retold here after US20210070748A1, “INHIBITORS OF BRUTONS TYROSINE KINASE” (Pharmacyclics LLC, priority 2015, published 2021).

SMILES strings stand for the structures. pIC50: −log10 of the molar value.

Assay type in all cases: biochemical
One experiment has as its target SRC (Homo sapiens, UniProt P12931). Put plainly: Inhibition of a panel of kinases, in vitro HotSpot kinase assay: SRC. To be noted: D-compounds panel data; 1 μM ATP. The method, then: (§1) The degree of inhibition of a panel of kinases is determined using the in vitro HotSpot kinase assay (purified enzymes, ^33P-ATP, an appropriate substrate and 1 μM ATP).
The target of the next experiment is EGFR (Homo sapiens, UniProt P00533). Nature of the experiment: Inhibition of a panel of kinases, in vitro HotSpot kinase assay: EGFR. To be noted: D-compounds panel data; 1 μM ATP. The procedure:
as §1

The target in the next experiment is LCK (Homo sapiens, UniProt P06239). Put plainly: Inhibition of a panel of kinases, in vitro HotSpot kinase assay: LCK. To be noted: D-compounds panel data; 1 μM ATP; read-out: IC50 LCK.
A further experiment concerns the target T1, ITK (Homo sapiens, UniProt Q08881).
T1 sequence (Q08881 1-620): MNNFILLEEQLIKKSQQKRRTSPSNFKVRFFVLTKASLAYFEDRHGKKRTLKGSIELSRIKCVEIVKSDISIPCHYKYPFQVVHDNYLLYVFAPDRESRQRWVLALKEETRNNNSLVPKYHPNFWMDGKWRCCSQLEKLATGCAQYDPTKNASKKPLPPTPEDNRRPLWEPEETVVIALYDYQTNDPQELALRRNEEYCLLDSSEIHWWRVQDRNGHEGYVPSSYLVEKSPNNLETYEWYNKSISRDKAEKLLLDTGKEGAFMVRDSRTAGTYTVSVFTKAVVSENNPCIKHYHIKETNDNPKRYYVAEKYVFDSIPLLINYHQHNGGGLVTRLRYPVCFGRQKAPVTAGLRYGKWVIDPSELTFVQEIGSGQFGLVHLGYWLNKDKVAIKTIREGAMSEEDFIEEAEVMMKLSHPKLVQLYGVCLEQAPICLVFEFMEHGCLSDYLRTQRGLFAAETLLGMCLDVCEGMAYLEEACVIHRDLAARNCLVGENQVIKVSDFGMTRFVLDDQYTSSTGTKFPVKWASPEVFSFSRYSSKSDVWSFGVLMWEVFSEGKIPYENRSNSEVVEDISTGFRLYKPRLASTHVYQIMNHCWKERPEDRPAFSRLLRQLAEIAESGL
Put plainly: Inhibition of a panel of kinases, in vitro HotSpot kinase assay: ITK. To be noted: D-compounds panel data; 1 μM ATP. The procedure:
as §1

The target of a further experiment is T2, BTK-WT (Homo sapiens, UniProt Q06187).
T2 construct: purified from insect cells as a full-length construct containing an N-terminal 6X-His tag; His6 (N); made in house; host or cells: insect cells (baculovirus Sf21 in Method B)
Put plainly: Btk in vitro inhibitory activity (one of Method A TR-FRET, Method B electrophoretic mobility shift, Method C radiometric filter binding). To be noted: D-compounds panel data; read-out: IC50 BTK-WT. (In EMSA bound probe runs differently from free probe, usually more slowly.)

T2 sequence (Q06187 whole entry): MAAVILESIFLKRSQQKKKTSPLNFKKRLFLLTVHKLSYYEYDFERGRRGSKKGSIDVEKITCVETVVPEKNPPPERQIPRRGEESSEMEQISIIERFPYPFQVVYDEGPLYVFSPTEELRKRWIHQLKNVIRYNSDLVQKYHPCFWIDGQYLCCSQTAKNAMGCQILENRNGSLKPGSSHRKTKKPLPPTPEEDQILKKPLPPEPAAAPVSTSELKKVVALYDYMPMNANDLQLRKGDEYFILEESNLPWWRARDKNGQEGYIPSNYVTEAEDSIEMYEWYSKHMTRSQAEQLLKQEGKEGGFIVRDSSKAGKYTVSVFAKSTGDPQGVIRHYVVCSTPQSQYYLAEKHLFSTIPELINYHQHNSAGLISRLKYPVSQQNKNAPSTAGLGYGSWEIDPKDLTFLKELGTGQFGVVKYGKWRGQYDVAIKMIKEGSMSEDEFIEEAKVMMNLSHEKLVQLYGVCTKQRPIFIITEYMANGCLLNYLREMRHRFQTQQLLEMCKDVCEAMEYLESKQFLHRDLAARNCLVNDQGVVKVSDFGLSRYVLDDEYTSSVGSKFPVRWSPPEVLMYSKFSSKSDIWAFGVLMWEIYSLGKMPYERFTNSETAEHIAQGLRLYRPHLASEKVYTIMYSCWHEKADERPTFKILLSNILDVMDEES
Sequence of LCK (P06239 whole entry): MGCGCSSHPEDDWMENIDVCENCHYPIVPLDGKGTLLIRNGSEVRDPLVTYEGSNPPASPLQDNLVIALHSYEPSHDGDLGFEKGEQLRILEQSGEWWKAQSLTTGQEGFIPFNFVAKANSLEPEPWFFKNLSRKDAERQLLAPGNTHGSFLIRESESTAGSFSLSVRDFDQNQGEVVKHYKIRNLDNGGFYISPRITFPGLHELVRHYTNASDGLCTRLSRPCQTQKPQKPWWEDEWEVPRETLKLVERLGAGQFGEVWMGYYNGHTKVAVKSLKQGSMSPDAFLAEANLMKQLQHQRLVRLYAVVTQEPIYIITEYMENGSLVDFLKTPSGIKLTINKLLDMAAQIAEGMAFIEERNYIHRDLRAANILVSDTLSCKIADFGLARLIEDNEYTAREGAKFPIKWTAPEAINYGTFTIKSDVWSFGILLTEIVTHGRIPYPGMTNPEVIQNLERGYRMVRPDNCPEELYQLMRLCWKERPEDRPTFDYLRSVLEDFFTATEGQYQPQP
Sequence of SRC (P12931 whole entry): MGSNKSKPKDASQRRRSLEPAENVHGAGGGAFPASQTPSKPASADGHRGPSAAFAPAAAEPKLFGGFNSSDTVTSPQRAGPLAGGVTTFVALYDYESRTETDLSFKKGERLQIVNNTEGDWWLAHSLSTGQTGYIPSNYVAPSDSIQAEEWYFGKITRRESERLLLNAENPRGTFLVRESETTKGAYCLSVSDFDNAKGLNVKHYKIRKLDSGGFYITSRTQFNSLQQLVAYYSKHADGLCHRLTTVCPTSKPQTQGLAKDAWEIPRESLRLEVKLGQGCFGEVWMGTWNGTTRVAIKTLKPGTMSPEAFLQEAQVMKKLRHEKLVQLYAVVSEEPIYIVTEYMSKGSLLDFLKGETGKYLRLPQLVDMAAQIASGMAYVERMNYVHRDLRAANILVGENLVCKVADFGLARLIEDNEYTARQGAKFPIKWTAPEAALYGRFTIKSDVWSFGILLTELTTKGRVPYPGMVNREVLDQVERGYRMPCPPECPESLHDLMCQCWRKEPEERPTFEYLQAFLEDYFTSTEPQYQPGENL
Sequence of EGFR (P00533 25-1210): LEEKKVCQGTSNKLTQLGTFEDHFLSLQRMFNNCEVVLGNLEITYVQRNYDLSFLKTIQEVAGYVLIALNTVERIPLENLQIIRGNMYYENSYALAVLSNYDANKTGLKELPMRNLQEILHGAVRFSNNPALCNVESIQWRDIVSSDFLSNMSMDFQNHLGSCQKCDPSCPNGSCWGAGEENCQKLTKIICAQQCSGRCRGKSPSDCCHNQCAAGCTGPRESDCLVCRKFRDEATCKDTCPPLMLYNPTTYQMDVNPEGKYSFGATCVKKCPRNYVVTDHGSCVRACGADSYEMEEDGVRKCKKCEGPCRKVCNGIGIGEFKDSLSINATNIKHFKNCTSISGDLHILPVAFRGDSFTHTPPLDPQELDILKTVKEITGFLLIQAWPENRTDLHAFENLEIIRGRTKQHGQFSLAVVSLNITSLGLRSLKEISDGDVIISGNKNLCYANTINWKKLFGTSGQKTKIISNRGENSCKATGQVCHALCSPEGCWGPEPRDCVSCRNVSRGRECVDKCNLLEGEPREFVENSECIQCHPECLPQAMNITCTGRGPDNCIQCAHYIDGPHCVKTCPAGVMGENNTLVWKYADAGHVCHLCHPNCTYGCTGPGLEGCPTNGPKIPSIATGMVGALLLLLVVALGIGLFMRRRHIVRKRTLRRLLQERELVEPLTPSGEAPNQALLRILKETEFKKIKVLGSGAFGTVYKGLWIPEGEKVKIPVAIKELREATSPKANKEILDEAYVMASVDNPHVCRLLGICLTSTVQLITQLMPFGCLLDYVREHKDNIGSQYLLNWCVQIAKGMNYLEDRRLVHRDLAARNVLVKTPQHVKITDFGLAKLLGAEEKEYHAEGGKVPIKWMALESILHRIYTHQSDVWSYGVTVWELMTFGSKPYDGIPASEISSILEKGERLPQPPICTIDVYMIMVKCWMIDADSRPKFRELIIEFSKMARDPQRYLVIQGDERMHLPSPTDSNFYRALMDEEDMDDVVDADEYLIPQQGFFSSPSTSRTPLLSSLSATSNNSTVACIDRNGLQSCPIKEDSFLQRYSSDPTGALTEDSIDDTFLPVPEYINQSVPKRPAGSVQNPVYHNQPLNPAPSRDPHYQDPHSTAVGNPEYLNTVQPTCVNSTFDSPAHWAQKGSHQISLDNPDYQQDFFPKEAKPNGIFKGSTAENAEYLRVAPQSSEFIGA

In the case of `Cn1cc(Nc2nc(N3CCC[C@@H](n4ccc5cc(C6CC6)ccc5c4=O)C3)cnc2C(N)=O)cn1` [Example D-184, 5-[(3R)-3-(6-cyclopropyl-1-oxo-1,2-dihydroisoquinolin-2-yl)piperidin-1-yl]-3-[(1-methyl-1H-pyrazol-4-yl)amino]pyrazine-2-carboxamide], the negative logarithm of the IC50 (pIC50) is 5.00 to 6.00 against SRC; less than 5.00 against EGFR; 5.00 to 6.00 at LCK; less than 5.00 on ITK; not below 8.00 at BTK-WT.
As for `C[C@@H]1[C@H](NC(=O)c2ccc(C3CC3)cc2)CCCN1c1cnc(C(N)=O)c(Nc2cnn(CC(C)(C)O)c2)n1` [Example D-215, 5-[(2R,3R)-3-(4-cyclopropylbenzamido)-2-methylpiperidin-1-yl]-3-{[1-(2-hydroxy-2-methylpropyl)-1H-pyrazol-4-yl]amino}pyrazine-2-carboxamide], the pIC50 at SRC was 6.00 to 7.00; against EGFR, less than 5.00; on LCK, 5.00 to 6.00; against ITK it was 5.00 to 6.00; on BTK-WT it was not below 8.00.
Consider `Cc1cc(Nc2nc(N3C[C@H](NC(=O)c4ccc(C5CC5)cc4F)CC[C@@H]3C)cnc2C(N)=O)sn1` [Example D-181, 5-[(2S,5R)-5-(4-cyclopropyl-2-fluorobenzamido)-2-methylpiperidin-1-yl]-3-[(3-methyl-1,2-thiazol-5-yl)amino]pyrazine-2-carboxamide], for which the negative-log IC50 (pIC50) was 7.00 to 8.00 at SRC; 6.00 to 7.00 on EGFR; 6.00 to 7.00 at LCK; 5.00 to 6.00 against ITK; not below 8.00 on BTK-WT.
`C[C@@H]1[C@H](NC(=O)c2ccc(OC3CC3)cc2)CCCN1c1cnc(C(N)=O)c(Nc2cnn(C)c2)n1` [Example D-219, 5-[(2R,3R)-3-(4-cyclopropoxybenzamido)-2-methylpiperidin-1-yl]-3-[(1-methyl-1H-pyrazol-4-yl)amino]pyrazine-2-carboxamide]: the pIC50 on SRC was 7.00 to 8.00; against EGFR, 5.00 to 6.00; at LCK it was 7.00 to 8.00; on ITK it was 6.00 to 7.00; on BTK-WT, not below 8.00.
As for `C[C@@H]1[C@H](NC(=O)c2cnc(C3CC3)cn2)CCCN1c1cnc(C(N)=O)c(Nc2cnn(C)c2)n1` [Example D-205, 5-[(2R,3R)-3-(5-cyclopropylpyrazine-2-amido)-2-methylpiperidin-1-yl]-3-[(1-methyl-1H-pyrazol-4-yl)amino]pyrazine-2-carboxamide], the pIC50 at SRC is 7.00 to 8.00; at EGFR, 6.00 to 7.00; at LCK, 7.00 to 8.00; against ITK, 6.00 to 7.00; at BTK-WT, not below 8.00.
With `C[C@@H]1[C@H](NC(=O)c2ccc(SC(F)(F)F)cc2)CCCN1c1cnc(C(N)=O)c(Nc2cnn(C)c2)n1` [Example D-241, 3-[(1-methyl-1H-pyrazol-4-yl)amino]-5-[(2R,3R)-2-methyl-3-{4-[(trifluoromethyl)sulfanyl]benzamido}piperidin-1-yl]pyrazine-2-carboxamide], the pIC50 against SRC is 7.00 to 8.00; against EGFR, 6.00 to 7.00; at LCK, 6.00 to 7.00; on ITK, 5.00 to 6.00; at BTK-WT, not below 8.00.
`C[C@@H]1[C@H](NC(=O)c2ccc(C(C)(C)O)cc2)CCCN1c1cnc(C(N)=O)c(Nc2cnn(C)c2)n1` [Example D-194, 5-[(2R,3R)-3-[4-(2-hydroxypropan-2-yl)benzamido]-2-methylpiperidin-1-yl]-3-[(1-methyl-1H-pyrazol-4-yl)amino]pyrazine-2-carboxamide]: the pIC50 on SRC was 6.00 to 7.00; against EGFR, 5.00 to 6.00; on LCK, 6.00 to 7.00; on ITK, 6.00 to 7.00; at BTK-WT it was not below 8.00.
With `COc1cc(C(=O)N[C@@H]2CCCN(c3cnc(C(N)=O)c(Nc4cnn(C)c4)n3)[C@@H]2C)ccc1C1CC1` [Example D-231, 5-[(2R,3R)-3-(4-cyclopropyl-3-methoxybenzamido)-2-methylpiperidin-1-yl]-3-[(1-methyl-1H-pyrazol-4-yl)amino]pyrazine-2-carboxamide], the pIC50 is 7.00 to 8.00 on SRC; 5.00 to 6.00 at EGFR; 6.00 to 7.00 at LCK; 6.00 to 7.00 at ITK; not below 8.00 at BTK-WT.
For `C[C@@H]1[C@H](NC(=O)c2ccc(C3CC3)cn2)CCCN1c1cnc(C(N)=O)c(Nc2ccc(N3CCN(C)CC3)cc2)n1` [Example D-188, 5-[(2R,3R)-3-(5-cyclopropylpyridine-2-amido)-2-methylpiperidin-1-yl]-3-{[4-(4-methylpiperazin-1-yl)phenyl]amino}pyrazine-2-carboxamide], the negative logarithm of the IC50 (pIC50) on SRC was 7.00 to 8.00; on EGFR it was 6.00 to 7.00; on LCK it was 6.00 to 7.00; at ITK, 6.00 to 7.00; on BTK-WT, not below 8.00.
Regarding `C[C@@H]1[C@H](NC(=O)c2ccc(N(C)CCO)cc2)CCCN1c1cnc(C(N)=O)c(Nc2cnn(C)c2)n1` [Example D-217, 5-[(2R,3R)-3-{4-[(2-hydroxyethyl)(methyl)amino]benzamido}-2-methylpiperidin-1-yl]-3-[(1-methyl-1H-pyrazol-4-yl)amino]pyrazine-2-carboxamide], the pIC50 against SRC is 7.00 to 8.00; against EGFR it was 5.00 to 6.00; at LCK, 6.00 to 7.00; at ITK, 6.00 to 7.00; at BTK-WT it was not below 8.00.
In the case of `CN1CCN(c2ccc(Nc3cc(N4CCC[C@@H](n5ccc6cc(C7CC7)ccc6c5=O)C4)cnc3C(N)=O)cc2)CC1` [Example D-178, 5-[(3R)-3-(6-cyclopropyl-1-oxo-1,2-dihydroisoquinolin-2-yl)piperidin-1-yl]-3-{[4-(4-methylpiperazin-1-yl)phenyl]amino}pyridine-2-carboxamide], the pIC50 on SRC was 5.00 to 6.00; against EGFR, less than 5.00; on LCK, 5.00 to 6.00; against ITK, 5.00 to 6.00; at BTK-WT, 7.00 to 8.00.
As for `C[C@@H]1[C@H](NC(=O)c2ccc(C(C)(O)C(F)(F)F)cc2)CCCN1c1cnc(C(N)=O)c(Nc2cnn(C)c2)n1` (single isomer, unassigned) [Example D-214], the pIC50 on SRC is 7.00 to 8.00; at EGFR, 6.00 to 7.00; at LCK, 7.00 to 8.00; against ITK, 6.00 to 7.00; on BTK-WT, not below 8.00.
In the case of `Cn1cc(Nc2nc(N3C4CCC(NC(=O)c5ccc(C6CC6)cc5)C3CC4)cnc2C(N)=O)cn1` (single isomer, unassigned) [Example D-202, 5-[2-(4-cyclopropylbenzamido)-8-azabicyclo[3.2. I]octan-8-yl]-3-[(1-methyl-1H-pyrazol-4-yl)amino]pyrazine-2-carboxamide], the pIC50 against SRC was 6.00 to 7.00; on EGFR it was less than 5.00; at LCK, 7.00 to 8.00; on ITK, 5.00 to 6.00; on BTK-WT it was 7.00 to 8.00.
With `CN1CCN([C@@H]2CCCN(c3cnc(C(N)=O)c(Nc4cnn(C)c4)n3)C2)C1=O` [Example D-209, 3-[(1-methyl-1H-pyrazol-4-yl)amino]-5-[(3R)-3-(3-methyl-2-oxoimidazolidin-1-yl)piperidin-1-yl]pyrazine-2-carboxamide], the pIC50 was 6.00 to 7.00 at SRC; less than 5.00 against EGFR; 6.00 to 7.00 at LCK; 5.00 to 6.00 against ITK; 7.00 to 8.00 on BTK-WT.
Consider `C/C=C/c1ccc(C(=O)N[C@@H]2CCCN(c3cnc(C(N)=O)c(Nc4cc(C)ns4)c3)[C@@H]2C)c(F)c1` [Example D-170, 5-[(2R,3R)-3-{2-fluoro-4-[(1E)-prop-1-en-1-yl]benzamido}-2-methylpiperidin-1-yl]-3-[(3-methyl-1,2-thiazol-5-yl)amino]pyridine-2-carboxamide], for which the pIC50 was 6.00 to 7.00 on SRC; 6.00 to 7.00 against EGFR; 7.00 to 8.00 on LCK; less than 5.00 at ITK; 7.00 to 8.00 on BTK-WT.
Consider `Cn1cc(Nc2nc(N3CCC(F)(F)[C@@H](NC(=O)c4ccc(C5CC5)cc4)C3)cnc2C(N)=O)cn1` [Example D-193, 5-[(3S)-3-(4-cyclopropylbenzamido)-4,4-difluoropiperidin-1-yl]-3-[(1-methylpyrazol-4-yl)amino]pyrazine-2-carboxamide], for which the pIC50 on SRC is 5.00 to 6.00; on EGFR, less than 5.00; at LCK, less than 5.00; at ITK it was less than 5.00; on BTK-WT, 7.00 to 8.00.

A word on the pIC50: it is the negative decadic logarithm of the IC50, by convention in mol/L.
